# Laboratory results published in patent US20250263424A1, “KRAS INHIBITORS” (Bristol-Myers Squibb Company, priority 2022, published 2025).
# Molecular target: Recombinant GMPPNP-loaded KRAS G12C (KRAS-G12C(ON), active form) (Homo sapiens, UniProt P01116, G12C)
# Test: KRAS G12C RAF Disruption Assay (HTRF)
# Type: biochemical
# Conditions: GMPPNP-loaded KRAS G12C 5 nM, GST-RAF1 RBD 9 nM, values given in μM, read-out: KRASG12C RAF Disruption Assay (IC50)
# Protocol: This is a functional assay that measures activity of compounds against […]., the active form of KRAS G12C. Recombinant GMPPNP-loaded KRAS G12C (5 nM) was treated with compound at room temperature for 20 minutes in assay buffer (50 mM Tris pH 7.5, 100 mM NaCl, 1 mM MgCl2, 1 mM DTT, 100 μg/ml BSA). Recombinant GST-RAF1 RBD (9 nM) was added, and the reaction mixture was incubated for 20 minutes. SA-Tb (0.25 nM) was added, and the reaction mixture was incubated for 3 hours. HTRF signal was measured (PerkinElmer Envision), the signal ratio (λem 520/λem 495) was calculated, and IC50 values were calculated from the dose-response curve.
# Recombinant GMPPNP-loaded KRAS G12C (KRAS-G12C(ON), active form), sequence (P01116 1-188 isoform P01116-2 G12C): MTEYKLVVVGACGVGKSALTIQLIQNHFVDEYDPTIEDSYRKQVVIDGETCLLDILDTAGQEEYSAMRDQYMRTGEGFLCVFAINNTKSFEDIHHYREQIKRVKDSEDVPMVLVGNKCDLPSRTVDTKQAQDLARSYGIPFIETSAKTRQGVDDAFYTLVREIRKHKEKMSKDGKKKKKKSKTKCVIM
row,IC50 [µM],SMILES
1,1.9,"Cc1cc(N)nc(-c2c(Cl)cc3c(N4CCC5(CN(C(=O)/C(F)=C/c6nccs6)C5)C4)nc(OC[C@@]45CCCN4C[C@H](F)C5)nc3c2F)c1C(F)(F)F (atropisomer, axis not shown; (M)) [Example 9, (Z)-1-(6-((7M)-7-(6-amino-4-methyl-3-(trifluoromethyl)pyridin-2-yl)-6-chloro-8-fluoro-2-(((2R,7aS)-2-fluorotetrahydro-1H-pyrrolizin-7a(5H)-yl)methoxy)quinazolin-4-yl)-2,6-diazaspiro[3.4]octan-2-yl)-2-fluoro-3-(thiazol-2-yl)prop-2-en-1-one]"
2,5.8,"Cc1cc(N)nc(-c2c(Cl)cc3c(N4[C@@H]5CC[C@H]4[C@H]4CN(C(=O)/C(F)=C/c6nccs6)C[C@H]45)nc(OC[C@]45CCCN4C[C@H](F)C5)nc3c2F)c1C(F)(F)F (atropisomer, axis not shown; (aR)) [Example 17, (Z)-1-((3aR,4S,7R,7aS)-8-((7M)-7-(6-amino-4-methyl-3-(trifluoromethyl)pyridin-2-yl)-6-chloro-8-fluoro-2-(((2R,7aR)-2-fluorotetrahydro-1H-pyrrolizin-7a(5H)-yl)methoxy)quinazolin-4-yl)octahydro-2H-4,7-epiminoisoindol-2-yl)-2-fluoro-3-(thiazol-2-yl)prop-2-en-1-one]"
3,1.1,"Cc1cc(N)nc(-c2c(Cl)cc3c(N[C@H]4C[C@@H](NC(=O)/C(F)=C/c5nccs5)C4)nc(OC[C@]45CCCN4C[C@H](F)C5)nc3c2F)c1C(F)(F)F (atropisomer, axis not shown; (M)) [Example 13, (Z)-N-((1S,3s)-3-(((7M)-7-(6-amino-4-methyl-3-(trifluoromethyl)pyridin-2-yl)-6-chloro-8-fluoro-2-(((2R,7aR)-2-fluorotetrahydro-1H-pyrrolizin-7a(5H)-yl)methoxy)quinazolin-4-yl)amino)cyclobutyl)-2-fluoro-3-(thiazol-2-yl)acrylamide]"

# Same assay, conditions: GMPPNP-loaded KRAS G12C 5 nM, GST-RAF1 RBD 9 nM, values in nM, read-out: KRASG12C RAF Disruption Assay (IC50)
row,SMILES,IC50 [µM]
1,"CN1CCC[C@H]1COc1nc(N2C[C@H]3CC[C@@H](C2)N3C(=O)/C(F)=C/c2ccccn2)c2ccc(-c3ccc(F)c4sc(N)nc34)c(F)c2n1 [Example 80, (Z)-1-((1R,5S)-3-(7-(2-amino-7-fluorobenzo[d]thiazol-4-yl)-8-fluoro-2-(((S)-1-methylpyrrolidin-2-yl)methoxy)quinazolin-4-yl)-3,8-diazabicyclo[3.2.1]octan-8-yl)-2-fluoro-3-(pyridin-2-yl)prop-2-en-1-one]",0.55
2,"Cc1cc2[nH]ncc2c(-c2ccc3c(N(C)[C@@H]4CCN(C(=O)/C(F)=C/c5nccs5)C4)nc(OC[C@@]45CCCN4C[C@H](F)C5)nc3c2F)c1Cl [Example 84, (Z)-1-((3R)-3-((7-(5-chloro-6-methyl-1H-indazol-4-yl)-8-fluoro-2-(((2R,7aS)-2-fluorotetrahydro-1H-pyrrolizin-7a(5H)-yl)methoxy)quinazolin-4-yl)(methyl)amino)pyrrolidin-1-yl)-2-fluoro-3-(thiazol-2-yl)prop-2-en-1-one]",0.098
3,"CN1CCC[C@H]1COc1nc(N2CCN(C(=O)/C(F)=C/c3cnccn3)[C@@H](CC#N)C2)c2ccc(-c3cc(Cl)ccc3OC(F)(F)F)c(F)c2n1 [Example 68, 2-((S)-4-(7-(5-chloro-2-(trifluoromethoxy)phenyl)-8-fluoro-2-(((S)-1-methylpyrrolidin-2-yl)methoxy)quinazolin-4-yl)-1-((Z)-2-fluoro-3-(pyrazin-2-yl)acryloyl)piperazin-2-yl)acetonitrile]",20.4
4,"CN1CCC[C@H]1COc1nc(N2CCN(C(=O)/C(F)=C/c3nccs3)[C@@H](CC#N)C2)c2ccc(-c3cccc4cccc(Cl)c34)c(F)c2n1 [Example 33, 2-((S)-1-((Z)-2-fluoro-3-(thiazol-2-yl)acryloyl)-4-(8-fluoro-7-(8-chloronaphthalen-1-yl)-2-(((S)-1-methylpyrrolidin-2-yl)methoxy)quinazolin-4-yl)piperazin-2-yl)acetonitrile]",0.076

# The remaining lines, values ahead:
row,IC50 [µM],SMILES
1,0.088,"N#CC[C@H]1CN(c2nc(OC[C@@]34CCCN3C[C@H](F)C4)nc3c(F)c(-c4cccc5cccc(Cl)c45)ccc23)CCN1C(=O)/C(F)=C/c1ncccn1 [Example 42, 2-((S)-4-(7-(8-chloronaphthalen-1-yl)-8-fluoro-2-(((2R,7aS)-2-fluorotetrahydro-1H-pyrrolizin-7a(5H)-yl)methoxy)quinazolin-4-yl)-1-((Z)-2-fluoro-3-(pyrimidin-2-yl)acryloyl)piperazin-2-yl)acetonitrile]"
2,0.022,"Cc1cc2[nH]ncc2c(-c2ccc3c(N(C)[C@@H]4CCN(C(=O)/C(F)=C/c5ccccn5)C4)nc(OC[C@@]45CCCN4C[C@H](F)C5)nc3c2F)c1Cl [Example 83, (Z)-1-((3R)-3-((7-(5-chloro-6-methyl-1H-indazol-4-yl)-8-fluoro-2-(((2R,7aS)-2-fluorotetrahydro-1H-pyrrolizin-7a(5H)-yl)methoxy)quinazolin-4-yl)(methyl)amino)pyrrolidin-1-yl)-2-fluoro-3-(pyridin-2-yl)prop-2-en-1-one]"
3,1.5,"COCCCN1CCC(Oc2nc(N3CCN(C(=O)/C(F)=C/c4nccs4)[C@@H](CC#N)C3)c3ccc(-c4cccc5cccc(Cl)c45)c(F)c3n2)CC1 [Example 74, (S,Z)-2-(4-(7-(8-chloronaphthalen-1-yl)-8-fluoro-2-((1-(3-methoxypropyl)piperidin-4-yl)oxy)quinazolin-4-yl)-1-(2-fluoro-3-(thiazol-2-yl)acryloyl)piperazin-2-yl)acetonitrile]"
4,0.043,"C#Cc1cccc2cccc(-c3ccc4c(N5CCN(C(=O)/C(F)=C/c6ccccn6)C[C@@H]5C)nc(OC[C@@]56CCCN5C[C@H](F)C6)nc4c3F)c12 [Example 88, (Z)-1-((S)-4-(7-(8-ethynylnaphthalen-1-yl)-8-fluoro-2-(((2R,7aS)-2-fluorotetrahydro-1H-pyrrolizin-7a(5H)-yl)methoxy)quinazolin-4-yl)-3-methylpiperazin-1-yl)-2-fluoro-3-(pyridin-2-yl)prop-2-en-1-one]"
5,0.025,"C#Cc1cccc2cccc(-c3ccc4c(N5CCN(C(=O)/C(F)=C/c6ccccn6)[C@@H](CC#N)C5)nc(OC[C@@]56CCCN5C[C@H](F)C6)nc4c3F)c12 [Example 85, 2-((S)-4-(7-(8-ethynylnaphthalen-1-yl)-8-fluoro-2-(((2R,7aS)-2-fluorotetrahydro-1H-pyrrolizin-7a(5H)-yl)methoxy)quinazolin-4-yl)-1-((Z)-2-fluoro-3-(pyridin-2-yl)acryloyl)piperazin-2-yl)acetonitrile]"
6,0.24,"N#CC[C@H]1CN(c2nc(OC[C@@]34CCCN3C[C@H](F)C4)nc3c(F)c(-c4cccc5cccc(C#N)c45)ccc23)CCN1C(=O)/C(F)=C/c1ccccn1 [Example 78, 8-(4-((S)-3-(cyanomethyl)-4-((Z)-2-fluoro-3-(pyridin-2-yl)acryloyl)piperazin-1-yl)-8-fluoro-2-(((2R,7aS)-2-fluorotetrahydro-1H-pyrrolizin-7a(5H)-yl)methoxy)quinazolin-7-yl)-1-naphthonitrile]"
7,0.27,"CN1CCC[C@H]1COc1nc(N2CCN(C(=O)/C(F)=C/c3nccs3)[C@@H](CC#N)C2)c2ccc(-c3c(O)cccc3F)c(F)c2n1 [Example 56, 2-((2S)-1-((Z)-2-fluoro-3-(thiazol-2-yl)acryloyl)-4-(8-fluoro-7-(2-fluoro-6-hydroxyphenyl)-2-(((S)-1-methylpyrrolidin-2-yl)methoxy)quinazolin-4-yl)piperazin-2-yl)acetonitrile]"
